Source: patent US7919261B2, “Methods for predicting treatment response based on the expression profiles of protein and transcription biomarkers” (Merck Sharp & Dohme Corp., priority 2006, dated 2011)

How the values were obtained:
HUT78 = experiment: TUNEL assay, vorinostat, JAK inhibitor and combination; assay type: cell-based, human; conditions: for % TUNEL positive cells: HUT78 cells, 48 h, induction of apoptosis
HH = experiment: ApoONE Homogeneous Caspase-3/7 Assay; assay type: cell-based, human; conditions: cell line HH
Experimental: (§1) Apoptosis assay: ApoONE® Homogeneous Caspase-3/7 Assay (Promega) was performed according to standard protocol (Promega). For the caspase assay cell lines were seeded and treated with vorinostat as previously indicated. After 24 hours of treatment, a volume equal to the media volume in each well of Apo-One Caspase 3/7 lysis was added to each well with cells. The apoptosis assay was then performed according to the manufacturer's instructions. The plates were read on the Flex Station II 384 from Molecular Devices. Where indicated, DNA fragmentation in response to vorinostat was also assessed in some cell lines by TUNEL assay (BD-PharMingen). […] Samples were analyzed by flow cytometry (FACSCalibur).
(§2) An expanded set of 50 human cell lines, including the twelve cell lines listed in Table 1, were assembled (Table 2), that represent a range of lymphoid tumor types (including 10 diffuse large B cell lymphoma, 10 Burkitt lymphoma, 8 multiple myeloma and 5 CTCL).

BC_3 = experiment: ApoONE Homogeneous Caspase-3/7 Assay; assay type: cell-based, human; conditions: cell line BC_3
Experimental: as §1, §2

ST486 = experiment: ApoONE Homogeneous Caspase-3/7 Assay; assay type: cell-based, human; conditions: cell line ST486
Experimental: as §1, §2

SUP_T1 = experiment: ApoONE Homogeneous Caspase-3/7 Assay; assay type: cell-based, human; conditions: cell line SUP_T1 (SUPT1)
Experimental: as §1, §2

Toledo [1] = experiment: ApoONE Homogeneous Caspase-3/7 Assay; assay type: cell-based, human
Experimental: as §1, §2

JM1 = experiment: ApoONE Homogeneous Caspase-3/7 Assay; assay type: cell-based, human; conditions: cell line JM1
Experimental: as §1, §2

DB = experiment: CellTiter-Blue Cell Viability Assay; assay type: cell-based; conditions: Homo sapiens; cell line DB, Lymphoma DLBCL; read-out: IC50 (μM) (Cell Titre-Blue assay)
Experimental: (§3) For the proliferation assay, cell lines were seeded on 96-well plates (Corning). […] The CellTiter-Blue Reagent™ was added to each of the wells. Experiments were performed in triplicate. The plates were then placed at 37° C. for two hours, and subsequently read on the Flex Station II […] from Molecular Devices. The IC50 values were calculated using the Sigma Plot software.
as §2

OCI_LY_19 = experiment: CellTiter-Blue Cell Viability Assay; assay type: cell-based; conditions: Homo sapiens, OCI-LY19; cell line OCI_LY_19, Lymphoma DLBCL; read-out: IC50 (μM) (Cell Titre-Blue assay)
Experimental: as §3, §2

HuT_78 = experiment: CellTiter-Blue Cell Viability Assay; assay type: cell-based; conditions: Homo sapiens, HuT78; cell line HuT_78, Lymphoma- CTCL; read-out: IC50 (μM) (Cell Titre-Blue assay)
Experimental: as §3, §2

IM_9 = experiment: CellTiter-Blue Cell Viability Assay; assay type: cell-based; conditions: Homo sapiens, IM-9; cell line IM_9, Multiple Myeloma; read-out: IC50 (μM) (Cell Titre-Blue assay)
Experimental: as §3, §2

Toledo [2] = experiment: CellTiter-Blue Cell Viability Assay; assay type: cell-based; conditions: Homo sapiens, cell line Toledo (1), Lymphoma DLBCL, read-out: IC50 (μM) (Cell Titre-Blue assay)
Experimental: as §3, §2

RL = experiment: CellTiter-Blue Cell Viability Assay; assay type: cell-based; conditions: Homo sapiens; cell line RL, Lymphoma - DLBCL; read-out: IC50 (μM) (Cell Titre-Blue assay)
Experimental: as §3, §2

HUT_102 = experiment: CellTiter-Blue Cell Viability Assay; assay type: cell-based; conditions: Homo sapiens, HuT-102; cell line HUT_102 (HUT102), Lymphoma - CTCL; read-out: IC50 (μM) (Cell Titre-Blue assay)
Experimental: as §3, §2

SU_DHL_4 = experiment: CellTiter-Blue Cell Viability Assay; assay type: cell-based; conditions: Homo sapiens, SU-DHL-4; cell line SU_DHL_4, Lymphoma DLBCL; read-out: IC50 (μM) (Cell Titre-Blue assay)
Experimental: as §3, §2

Row | SMILES | % TUNEL positive cells (HUT78) [%] | induction of apoptosis in combination with vorinostat (TUNEL assay) (HUT78; HUT78 CTCL cells, as detailed in Table 4) | Caspase 3,7 activation- 24 h (1 μM vorinostat)* (HH) | Caspase 3,7 activation- 24 h (1 μM vorinostat)* (BC_3) | Caspase 3,7 activation- 24 h (1 μM vorinostat)* (ST486) | Caspase 3,7 activation- 24 h (1 μM vorinostat)* (SUP_T1) | Caspase 3,7 activation- 24 h (1 μM vorinostat)* (Toledo [1]; cell line Toledo (1)) | Caspase 3,7 activation- 24 h (1 μM vorinostat)* (Toledo [1]; cell line Toledo (avg)) | Caspase 3,7 activation- 24 h (1 μM vorinostat)* (JM1) | IC50 (DB) [µM] | IC50 (OCI_LY_19) [µM] | IC50 (HuT_78) [µM] | IC50 (IM_9) [µM] | IC50 (Toledo [2]) [µM] | IC50 (RL) [µM] | IC50 (HUT_102) [µM] | IC50 (SU_DHL_4) [µM]
1 | CN[C@@H]1C[C@H]2O[C@@](C)([C@@H]1OC)n1c3ccccc3c3c4c(c5c6ccccc6n2c5c31)C(=O)NC4 [ST, staurosporine] | 40 | – | – | – | – | – | – | – | – | – | – | – | – | – | – | – | –
2 | CC(C)(C)c1nc2c3cc[nH]c(=O)c3c3cc(F)ccc3c2[nH]1 [Compound B, 2-tert-butyl-9-fluoro-1,6-dihydro-7H-benzo[h]imidazo[4,5-f]isoquinolin-7-one] | 37 | synergistic induction of apoptosis | – | – | – | – | – | – | – | – | – | – | – | – | – | – | –
3 | O=C(CCCCCCC(=O)Nc1ccccc1)NO [vorinostat, suberoylanilide hydroxamic acid] | 11 | – | + (Caspase 3,7 activation > 2 fold over untreated control.) | + (Caspase 3,7 activation > 2 fold over untreated control.) | + (Caspase 3,7 activation > 2 fold over untreated control.) | + (Caspase 3,7 activation > 2 fold over untreated control.) | + (Caspase 3,7 activation > 2 fold over untreated control.) | + (Caspase 3,7 activation > 2 fold over untreated control.) | + (Caspase 3,7 activation > 2 fold over untreated control.) | 1.87 | 1.58 | 2.13 | 1.57 | 0.66 | 2.23 | 0.83 | 1.88
